Laboratory results published in the NIST ThermoML archive (doi:10.1016/j.jct.2004.09.014).
Numbers after ± are expanded uncertainties.

Tests used:
[1] = xn = mol fraction of the nth substance listed; details: 101.3 kPa, Liquid
[2] = 101.3 kPa, Liquid

Row | SMILES | mass density ([2]; 293.15 K) [kg/m3] | mass density ([2]; 298.15 K) [kg/m3] | mass density ([2]; 303.15 K) [kg/m3] | mass density ([2]; 308.15 K) [kg/m3] | mass density ([2]; 313.15 K) [kg/m3] | also measured
1 | CCOC(C)(C)C [2-ethoxy-2-methylpropane] + COCCOCCOCCO | – | – | – | – | – | mass density ([1]; 293.15 K, x1 = 1): 741.11 ± 0.61 kg/m3; mass density ([1]; 298.15 K, x1 = 1): 735.59 ± 0.65 kg/m3; mass density ([1]; 303.15 K, x1 = 1): 730.85 ± 0.69 kg/m3; mass density ([1]; 308.15 K, x1 = 1): 725.98 ± 0.73 kg/m3; mass density ([1]; 313.15 K, x1 = 1): 720.69 ± 0.77 kg/m3
2 | COCCOCCO [2-(2-methoxyethoxy)ethanol] | 1020.8 ± 1.4 | 1016.4 ± 1.4 | 1011.83 ± 1.5 | 1007.69 ± 1.5 | 1003.22 ± 1.5 | –
3 | CCOC(C)(C)C [2-ethoxy-2-methylpropane] | 741.11 ± 0.61 | 735.59 ± 0.65 | 730.85 ± 0.69 | 725.98 ± 0.73 | 720.69 ± 0.77 | –
4 | CCOC(C)(C)C [2-ethoxy-2-methylpropane] + COCCOCCO | – | – | – | – | – | mass density ([1]; 293.15 K, x1 = 1): 741.11 ± 0.61 kg/m3; mass density ([1]; 298.15 K, x1 = 1): 735.59 ± 0.65 kg/m3; mass density ([1]; 303.15 K, x1 = 1): 730.85 ± 0.69 kg/m3; mass density ([1]; 308.15 K, x1 = 1): 725.98 ± 0.73 kg/m3; mass density ([1]; 313.15 K, x1 = 1): 720.69 ± 0.77 kg/m3
5 | COCCO [2-methoxyethan-1-ol] + CCOC(C)(C)C | – | – | – | – | – | mass density ([1]; 293.15 K, x2 = 0): 964.88 ± 1 kg/m3; mass density ([1]; 298.15 K, x2 = 0): 960.29 ± 1.1 kg/m3; mass density ([1]; 303.15 K, x2 = 0): 955.76 ± 1.1 kg/m3; mass density ([1]; 308.15 K, x2 = 0): 951.1 ± 1.1 kg/m3; mass density ([1]; 313.15 K, x2 = 0): 946.54 ± 1.1 kg/m3
6 | COCCO [2-methoxyethan-1-ol] | 964.88 ± 1 | 960.29 ± 1.1 | 955.76 ± 1.1 | 951.1 ± 1.1 | 946.54 ± 1.1 | –
7 | COCCOCCOCCO [2-[2-(2-methoxyethoxy)ethoxy]ethanol] | 1047.29 ± 1.9 | 1042.97 ± 1.9 | 1038.65 ± 1.9 | 1034.33 ± 1.9 | 1030.01 ± 2 | –
